Earlier results on one molecule are cited in patent publication EP4512398A1, “FLURALANER FOR USE IN METHODS OF TREATMENT AND PREVENTION OF SEA LICE INFESTATION IN FISH” (Bimeda Animal Health Limited, priority 2023, dated 2025).

SMILES strings stand for the structures.

The subject of this data set is parasites with resistance to organophosphates, pyrethroids and carbamates. To be noted: bio-assays, background statement; cited from earlier work.

Take `Cc1cc(C2=NOC(c3cc(Cl)cc(Cl)c3)(C(F)(F)F)C2)ccc1C(=O)NCC(=O)NCC(F)(F)F` (stereo not shown) [fluralaner, Fluralaner]: the “efficacy against parasites with resistance to organophosphates, pyrethroids and carbamates” value is given as “effective”.
